Read-outs that look alike come from different tables or passages of the source.
Experiments:
[1] = test system: Enterococcus faecalis—S613 HM-334; assay: MIC, broth microdilution in TSB; type: cell-based; details: TSB
How it was run: (§1)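 Overnight 37° C agar cultures → 0.5 McFarland → ~5×10^5 CFU/mL in broth; compounds serially diluted; aerobic 37° C, 18-20 h; endpoint is lowest concentration without visible growth.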

[2] = test system: Enterococcus faecium E417-HM-965; assay: MIC, broth microdilution in TSB; type: cell-based; details: TSB
How it was run: as §1

[3] = test system: Enterococcus faecium Patient #2-1-NR-31909; assay: MIC, broth microdilution in TSB; type: cell-based; details: TSB
How it was run: as §1

[4] = test system: Enterococcus faecium Patient #3-1 NR-31912; assay: MIC, broth microdilution in TSB; type: cell-based; details: TSB
How it was run: as §1

[5] = test system: Enterococcus fecalis Strain MMH594-NR31975; assay: MIC, broth microdilution in TSB; type: cell-based; details: TSB
How it was run: as §1

[6] = test system: Enterococcus fecalis Strain SF 24397 NR31970; assay: MIC, broth microdilution in TSB; type: cell-based; details: TSB
How it was run: as §1

[7] = test system: Enterococcus fecalis Strain SF 28073-NR31972; assay: MIC, broth microdilution in TSB; type: cell-based; details: TSB
How it was run: as §1

[8] = test system: Enterococcus fecalis Strain SF24413 NR31971; assay: MIC, broth microdilution in TSB; type: cell-based; details: TSB
How it was run: as §1

[9] = test system: MRSA NRS 384 (MRSA USA300); assay: MIC against Staphylococci, broth microdilution; type: cell-based, Staphylococcus aureus; details: TSB
How it was run: (§2)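 CLSI broth microdilution in tryptone soy broth, inoculum about 5×10^5 CFU/mL from overnight agar cultures at 0.5 McFarland, with serially diluted compound. Plates were incubated aerobically at 37° C for 18-20 h. MIC was the lowest concentration with no visible growth.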

[10] = test system: Staphylococcus epidermidis NRS 101; assay: MIC against Staphylococci, broth microdilution; type: cell-based; details: TSB
How it was run: as §2

[11] = test system: Bacteroides dorei—CL02T12C06 HM-719; assay: MIC against human normal gut microbiota; type: cell-based; details: BHIS broth, anaerobic, 48 hours
How it was run: (§3)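 Broth microdilution with ~5×10^5 CFU/ml inoculum from 0.5 McFarland suspension; Bifidobacterium and Bacteroides in supplemented BHI broth, anaerobic, Lactobacillus in MRS broth under 5% CO2. Plates with serial compound dilutions incubated 48 h at 37° C.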

[12] = test system: Bacteroides fragilis—CL07T00C01 HIM-709; assay: MIC against human normal gut microbiota; type: cell-based; details: BHIS broth, anaerobic, 48 hours
How it was run: as §3

[13] = test system: Bifidobacterium breve—JCP7499 HIM 1120; assay: MIC against human normal gut microbiota; type: cell-based; details: BHIS broth, anaerobic, 48 hours
How it was run: as §3

[14] = test system: Bifidobacterium longum subsp. Longum—44B HM 845; assay: MIC against human normal gut microbiota; type: cell-based; details: BHIS broth, anaerobic, 48 hours
How it was run: as §3

[15] = test system: Lactobacillus casei ATCC 334; assay: MIC against human normal gut microbiota; type: cell-based; details: MRS broth, 5% CO2, 48 hours
How it was run: as §3

[16] = test system: Lactobacillus gasseri EX336960VC03 HIM-400; assay: MIC against human normal gut microbiota; type: cell-based; details: MRS broth, 5% CO2, 48 hours
How it was run: as §3

[17] = test system: Mutant-3 of Enterococcus fecalis NR 31975; assay: microbe, parasite or virus in culture; type: cell-based
[18] = test system: Mutant-4 of Enterococcus fecalis NR 31975; assay: microbe, parasite or virus in culture; type: cell-based
[19] = test system: Mutant-5 of Enterococcus fecalis NR 31975; assay: microbe, parasite or virus in culture; type: cell-based
[20] = test system: Mutant-6 of Enterococcus fecalis NR 31975; assay: microbe, parasite or virus in culture; type: cell-based
[21] = test system: Mutant-7 of Enterococcus fecalis NR 31975; assay: microbe, parasite or virus in culture; type: cell-based
[22] = test system: Mutant-8 of Enterococcus fecalis NR 31975; assay: microbe, parasite or virus in culture; type: cell-based
[23] = test system: Mutant-12 of Enterococcus fecalis NR 31975; assay: microbe, parasite or virus in culture; type: cell-based
[24] = test system: Mutant-13 of Enterococcus fecalis NR 31975; assay: microbe, parasite or virus in culture; type: cell-based
[25] = test system: Mutant-14 of Enterococcus fecalis NR 31975; assay: microbe, parasite or virus in culture; type: cell-based
[26] = Enterococcus, Table 1, read-out: MIC
[27] = Enterococcus, Table 7, read-out: MIC in TSB
[28] = Enterococcus faecium, Table 1, read-out: MIC
[29] = Enterococcus faecium, Table 7, read-out: MIC in TSB

CC(=O)Nc1nnc(S(N)(=O)=O)s1 [Acetazolamide, reference compound]
> 64 µg/mL: MIC ([9]; Staphylococcus aureus, read-out: MIC) | MIC ([10]; Staphylococcus epidermidis, NRS101, read-out: MIC) | MIC ([11]; Bacteroides, read-out: MIC) | MIC ([12]; Bacteroides, read-out: MIC) | MIC ([13]; Bifidobacterium, read-out: MIC) | MIC ([14]; Bifidobacterium longum, read-out: MIC) | MIC ([15]; Lacticaseibacillus casei, ATCC334, read-out: MIC) | MIC ([16]; Lactobacillus gasseri, read-out: MIC)
2 µg/mL: MIC [1, 26] | MIC [1, 27] | MIC ([2]; Enterococcus faecium, E417HM965, Table 1, read-out: MIC) | MIC ([2]; Enterococcus faecium, E417HM965, Table 7, read-out: MIC in TSB) | MIC [3, 28] | MIC [3, 29] | MIC [4, 28] | MIC [4, 29] | MIC [6, 26] | MIC [6, 27]
32 µg/mL: MIC ([17]; Enterococcus) | MIC ([18]; Enterococcus) | MIC ([19]; Enterococcus) | MIC ([20]; Enterococcus) | MIC ([22]; Enterococcus) | MIC ([23]; Enterococcus) | MIC ([24]; Enterococcus) | MIC ([25]; Enterococcus)
16 µg/mL: MIC ([21]; Enterococcus)
4 µg/mL: MIC [5, 26] | MIC [5, 27] | MIC [7, 26] | MIC [7, 27] | MIC [8, 26] | MIC [8, 27]

NS(=O)(=O)c1nnc(NC(=O)CCC2CCCC2)s1 [CAI0015]
0.06 µg/mL: MIC in TSB ([1]; Table 7) | MIC in TSB ([2]; Table 7) | MIC in TSB ([3]; Table 7) | MIC ([5]; Table 1) | MIC in TSB ([5]; Table 7) | MIC in TSB ([6]; Table 7) | MIC in TSB ([7]; Table 7) | MIC ([8]; Table 1) | MIC in TSB ([8]; Table 7)
0.125 µg/mL: MIC ([1]; Table 1) | MIC ([3]; Table 1) | MIC in TSB ([4]; Table 7) | MIC ([6]; Table 1) | MIC ([7]; Table 1)
>64 µg/mL: MIC [9] | MIC [10] | MIC [11] | MIC [12] | MIC [13] | MIC [14] | MIC [15] | MIC [16]
0.25 µg/mL: MIC ([2]; Table 1) | MIC ([21]; Mutant-7)
2 µg/mL: MIC ([22]; Mutant-8) | MIC ([23]; Mutant-12)
1 µg/mL: MIC ([4]; Table 1) | MIC ([17]; Mutant-3) | MIC ([18]; Mutant-4) | MIC ([19]; Mutant-5) | MIC ([20]; Mutant-6) | MIC ([24]; Mutant-13) | MIC ([25]; Mutant-14)

CC(C)=CC(=O)Nc1nnc(S(N)(=O)=O)s1 [CAI0016, 3-Methyl-N-(5-sulfamoyl-1,3,4-thiadiazol-2-yl) but-2-enamide]
0.5 µg/mL: MIC ([1]; Table 1) | MIC ([3]; Table 1) | MIC in TSB ([4]; Table 7) | MIC ([5]; Table 1) | MIC ([6]; Table 1) | MIC ([7]; Table 1) | MIC in TSB ([7]; Table 7) | MIC ([8]; Table 1) | MIC in TSB ([8]; Table 7)
0.25 µg/mL: MIC in TSB ([1]; Table 7) | MIC ([2]; Table 1) | MIC in TSB ([3]; Table 7) | MIC in TSB ([5]; Table 7) | MIC in TSB ([6]; Table 7)
1 µg/mL: MIC ([4]; Table 1)
4 µg/mL: MIC ([17]; Mutant-3) | MIC ([19]; Mutant-5) | MIC ([21]; Mutant-7) | MIC ([22]; Mutant-8) | MIC ([24]; Mutant-13) | MIC ([25]; Mutant-14)
8 µg/mL: MIC ([18]; Mutant-4) | MIC ([23]; Mutant-12)
16 µg/mL: MIC ([20]; Mutant-6)
>64 µg/mL: MIC [9] | MIC [10] | MIC [11] | MIC [12] | MIC [13] | MIC [14] | MIC [15] | MIC [16]
